Structures can show the parent of a compound that is named as a salt. Where two headings read alike, the source gives them in different places. One block for each molecule: values may come before it.
System: amyloid β production in transfected H4 (human neuroglioma) cells stably expressing APP constructs
Assay: In vitro cell-based assay of inhibitors of amyloid β production (ELISA)
Conditions: amyloid β in medium by ELISA
Procedure, shortened: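 Aβ secreted into the medium was determined by a two-antibody ELISA specific for the Aβ C-terminus, calibrated with known Aβ amounts. Before that, compounds (10-100 μM initially) were left on the cells for roughly 16 hours.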

[1] = Table B, transfected H4 cells stably expressing APP, approximately 16 hours incubation, read-out: ACTIVITY (inhibitory concentration IC50, inhibition of amyloid β production)
[2] = transfected H4 cells stably expressing APP constructs, approximately 16 hours incubation, read-out: ACTIVITY (IC50, inhibition of amyloid β production)
[3] = transfected H4 cells stably expressing APP, approximately 16 hours incubation, Table B, read-out: ACTIVITY (IC50, inhibition of amyloid β production)
[4] = transfected H4 cells stably expressing APP, approx. 16 h incubation, read-out: ACTIVITY (IC50, inhibition of amyloid β production)
[5] = Homo sapiens, 16 h, transfected H4 cells stably expressing APP, approximately 16 hours incubation, read-out: ACTIVITY (IC50, inhibition of amyloid β production)
[6] = Homo sapiens, 16 h, transfected H4 cells expressing APP, approximately 16 hours incubation, read-out: ACTIVITY (IC50, inhibition of amyloid β production)
[7] = transfected H4 cells stably expressing APP, approximately 16 hours incubation, read-out: ACTIVITY (IC50, inhibition of amyloid β production)

Molecule: COC(=O)CS(=O)(=O)CCc1cc(F)ccc1[C@@H](C)N(c1cc(F)ccc1F)S(=O)(=O)c1ccc(Cl)cc1 [Example 478, Methyl ({2-[2-((1R)-1-{[(4-chlorophenyl)sulfonyl]-2,5-difluoroanilino}ethyl)-5-fluorophenyl]ethyl}sulfonyl)acetate]
IC50 [3]: 0.1 to 0.5 µM

Molecule: C[C@H](C(=O)NCc1cc(Cl)cc(Cl)c1)N(c1cc(Cl)ccc1F)S(=O)(=O)c1ccc(Cl)cc1 [Example 1365]
IC50 [6]: > 0.5 µM

Molecule: O=S(=O)(c1ccc(Cl)cc1)N(Cc1ccccc1OCCCN1CCCCC1)C1CCOCC1 [Example 986, 4-chloro-N-{2-[3-(1-piperidinyl)propoxy]benzyl}-N-tetrahydro-2H-pyran-4-ylbenzenesulfonamide hydrochloride]
IC50 [5]: > 0.5 µM

Molecule: C[C@H](CCNc1c(NCC[C@@H](C)N(c2cc(F)ccc2F)S(=O)(=O)c2ccc(Cl)cc2)c(=O)c1=O)N(c1cc(F)ccc1F)S(=O)(=O)c1ccc(Cl)cc1 [Example 132, 4-Chloro-N-(2,5-difluorophenyl)-N-[3-[2-[4-chloro-N-(2,5-difluorophenyl)-N-[(3-amino)-1(R)-methylpropyl]benzenesulfonamide]-3,4-dioxo-1-cyclobutenyl]amine-1(R)-methylpropyl]benzenesulfonamide]
IC50 [1]: ≤ 0.025 µM

Molecule: O=S(=O)(c1ccccc1)N(Cc1ccccc1CCCN1CCCCC1)c1ccccc1 [Example 1031, N-phenyl-N-{2-[3-(1-piperidinyl)propyl]benzyl}benzenesulfonamide]
IC50 [5]: > 0.5 µM

Molecule: (2R)-2-{[(4-chlorophenyl)sulfonyl]-2,5-difluoroanilino}propanoic acid [Example 1013]
IC50 [7]: > 0.5 µM

Molecule: O=S(=O)(c1ccc(Cl)cc1)N(Cc1ccccc1OCC[S+]([O-])C1CCCCC1)c1cc(F)ccc1F (stereo not drawn) [Example 1050, 4-chloro-N-{2-[2-(cyclohexylsulfinyl)ethoxy]benzy}-N-(2,5-difluorophenyl)benzenesulfonamide]
IC50 [7]: > 0.5 µM

Molecule: N-{3-[2-(1-{[(4-chlorophenyl)sulfonyl]-2,5-difluoroanilino}ethyl)phenoxy]propyl}-3,4-dimethoxy-N-methylbenzamide [Example 643]
IC50 [4]: 0.1 to 0.5 µM

Molecule: N-{2-[2-(1-{[(4-chlorophenyl)sulfonyl]-2,5-difluoroanilino}ethyl)phenoxy]ethyl}-N-ethyltetradecanamide [Example 928]
IC50 [7]: > 0.5 µM

Molecule: O=S(=O)(c1ccc(Cl)cc1)N(Cc1cc(Cl)ccc1OCCCN1CCC(O)CC1)c1ccccc1 [Example 309, 4-Chloro-N-{5-chloro-2-[3-(4-hydroxy-1-piperidinyl)propoxy]benzyl}-N-phenylbenzenesulfonamide Hydrochloride]
IC50 [3]: 0.05 to 0.1 µM

Molecule: COC(=O)[C@H](CSCc1cc(F)ccc1[C@@H](C)N(c1cc(F)ccc1F)S(=O)(=O)c1ccc(Cl)cc1)NC(=O)OC(C)(C)C [Example 468, Methyl (2R)-2-[(tert-butoxycarbonyl)amino]-3-{[2-((1R)-1-{[(4-chlorophenyl)sulfonyl]-2,5-difluoroanilino}ethyl)-5-fluorobenzyl]sulfanyl}propanoate]
IC50 [3]: 0.05 to 0.1 µM

Molecule: 4-chloro-N-(5-chloro-2-fluorophenyl)-N-[3-[2-[4-chloro-N-(5-chloro-2-fluorophenyl)-N-[(3-amino)-1(R)-methylpropyl]benzenesulfonamide]-3,4-dioxo-1-cyclobutenyl)amine-1(R)- [Example 1130]
IC50 [2]: 0.05 to 0.1 µM

Further lines, results first:

IC50 [1]: ≤ 0.025 µM
Molecule: COC(=O)CSCC[C@@H](C)N(c1cc(Cl)ccc1Cl)S(=O)(=O)c1ccc(Cl)cc1 [Example 179, Methyl(6R)-6-[(2,5,dichlorophenyl)[(4-chlorophenyl)sulfonyl]amino]-3-thioheptanoate]

IC50 [2]: > 0.5 µM
Molecule: C[C@H](CC[S+]([O-])CC(=O)O)N(c1cc(Cl)ccc1Cl)S(=O)(=O)c1ccc(Cl)cc1 (stereo partly drawn) [Example 1196, (6R)-6-[(2,5-dichlorophenyl)-[(4-chlorophenyl)sulfonyl]-amino]-3-thioheptanoic acid, 3-oxide]

IC50 [4]: 0.1 to 0.5 µM
Molecule: N-{3-[2-(1-{[(4-chlorophenyl)sulfonyl]-2,5-difluoroanilino}ethyl)phenoxy]propyl}-N-methyl-4-(trifluoromethyl)benzamide [Example 703]

IC50 [5]: 0.1 to 0.5 µM
Molecule: CC#CCCCN(Cc1ccccc1OCCCN1CCCCC1)S(=O)(=O)c1ccc(Cl)cc1 [Example 842, 4-chloro-N-(4-hexynyl)-N-{2-[3-(1-piperidinyl)propoxy]benzyl}benzenesulfonamide hydrochloride]

IC50 (Homo sapiens, 16 h, transfected H4 cells stably expressing APP, approx. 16 h incubation, read-out: ACTIVITY (IC50, inhibition of amyloid β production)): 0.1 to 0.5 µM
Molecule: O=C1CCCC(=O)N1CCCOc1ccccc1CN(c1cc(F)ccc1F)S(=O)(=O)c1ccc(Cl)cc1 [Example 704, 4-chloro-N-(2,5-difluorophenyl)-N-{2-[3-(2,6-dioxo-1-piperidinyl)propoxy]benzyl}benzenesulfonamide]

IC50 [6]: > 0.5 µM
Molecule: Cc1ccc(CCNC(=O)[C@@H](C)N(c2cc(Cl)ccc2F)S(=O)(=O)c2ccc(Cl)cc2)cc1 [Example 1325]

IC50 [4]: 0.1 to 0.5 µM
Molecule: 2-((1R)-1-{[(4-chlorophenyl)sulfonyl]-2,5-difluoroanilino}ethyl)benzyl isopropylcarbamate [Example 674]

IC50 [4]: 0.1 to 0.5 µM
Molecule: methyl [[2-((1R)-1-{[(4-chlorophenyl)sulfonyl]-2,5-difluoroanilino}ethyl)benzyl]- [Example 798]

IC50 [5]: > 0.5 µM
Molecule: CCC(c1ccccc1OCCCN1CCCCC1)N(c1cc(F)ccc1F)S(=O)(=O)c1ccc(Cl)cc1 (stereo not drawn) [Example 878, 4-chloro-N-(2,5-difluorophenyl)-N-(1-{2-[3-(1-piperidinyl)propoxy]phenyl}propyl)benzenesulfonamide hydrochloride]

IC50 [3]: 0.1 to 0.5 µM
Molecule: COC(=O)[C@H](CSCCCc1cc(F)ccc1[C@@H](C)N(c1cc(F)ccc1F)S(=O)(=O)c1ccc(Cl)cc1)NC(=O)OC(C)(C)C [Example 485]

IC50 [7]: > 0.5 µM
Molecule: ethyl 3-(2-{[(phenylsulfonyl)anilino]methyl}phenyl)propanoate [Example 995]

IC50 [4]: 0.1 to 0.5 µM
Molecule: Cc1cccc(C(=O)N(C)CCCOc2ccccc2C(C)N(c2cc(F)ccc2F)S(=O)(=O)c2ccc(Cl)cc2)c1 (stereo not drawn) [Example 766]

IC50 [7]: > 0.5 µM
Molecule: 4-[2-((1R)-1-{[(4-chlorophenyl)sulfonyl]-2,5-difluoroanilino}ethyl)-5-fluorophenyl]-N-(cyanomethoxy)butanamide [Example 1079]

IC50 [6]: 0.1 to 0.5 µM
Molecule: C[C@H](C(=O)NCc1ccncc1)N(c1cc(Cl)ccc1F)S(=O)(=O)c1ccc(Cl)cc1 [Example 1313]

IC50 [7]: > 0.5 µM
Molecule: N-{3-[2-({[(4-chlorophenyl)sulfonyl]-2,5-difluoroanilino}methyl)phenoxy]propyl}-N,4-dimethyl-3-nitrobenzamide [Example 907]

IC50 [4]: 0.1 to 0.5 µM
Molecule: CN(CCCOc1ccccc1CN(c1cc(F)ccc1F)S(=O)(=O)c1ccc(Cl)cc1)C(=O)CCCCC1SCC2NC(=O)NC21 (stereo not drawn) [Example 666, N-{3-[2-({[(4-chlorophenyl)sulfonyl]-2,5-difluoroanilino}methyl)phenoxy]propyl}-N-methyl-5-(2-oxohexahydro-1H-thieno[3,4-d]imidazol-4-yl)pentamide]

IC50 [4]: 0.1 to 0.5 µM
Molecule: N-{4-[2-(1-{[(4-chlorophenyl)sulfonyl]-2,5-difluoroanilino}ethyl)phenoxy]butyl}-N-ethylacrylamide [Example 739]

IC50 [5]: > 0.5 µM
Molecule: CS(=O)(=O)c1ccccc1N(Cc1ccccc1OCCCN1CCCCC1)S(=O)(=O)c1ccc(Cl)cc1 [Example 1027, 4-chloro-N-[2-(methylsulfonyl)phenyl]-N-{2-[3-(1-piperidinyl)propoxy]benzyl}benzenesulfonamide hydrochloride]

Reference: patent US6967196B1, “Sulfonamide compounds and uses thereof” (Bristol-Myers Squibb Company, priority 1999, dated 2005)
